In the RepoRT retention time repository (doi:10.1021/acs.analchem.7b00925) one finds LC retention time data, which are given here for 90 molecules.

The series in a line: HILIC, Merck SeQuant ZIC-HILIC, 100 × 2.1 mm, 3.5 µm, 25 °C, 0.3 mL/min, estimated dead time 0.73 min; A: water + 0.1% formic acid, pH 3; B: acetonitrile + 0.1% formic acid, pH 3; gradient (min/%B) 0/95 1.5/95 13.5/40 15.5/40 29.7/25 33.5/25 34.5/95 41.5/95. As to conditions: stereoisomer not certain.
In the case of `CC(=O)NC(Cc1cnc[nH]1)C(=O)O` (stereo not given) [N,N-Acetylhistidine], the LC retention time is 8.16 min.

In the case of `CC(CCC(=O)O)C1CCC2C3C(O)CC4CC(O)CCC4(C)C3CCC12C` (stereo not given) [Chenodeoxycholic acid], the LC retention time is 1.3 min.

Take `O=C(C=CC=Cc1ccc2c(c1)OCO2)N1CCCCC1` [Piperine]: the LC retention time was 0.94 min.

In the case of `C[n+]1cccc(C(N)=O)c1` [1-Methylnicotinamide], the LC retention time is 8.28 min.

In the case of `NCC(O)c1ccc(O)c(O)c1` (stereo not given) [Noradrenaline], the LC retention time is 9.31 min.

In the case of `NCCc1ccc(O)cc1` [Tyramine], the LC retention time is 6.81 min.

As to `OCC1OC(OC2(CO)OC(CO)C(O)C2O)C(O)C(O)C1O` (stereo not given) [Sucrose], the LC retention time was 7.32 min.

`Cc1ncc(CO)c(C(=O)O)c1O` [4-pyridoxic acid]: the LC retention time was 4.14 min.

Regarding `NC(CCSCC(N)C(=O)O)C(=O)O` (stereo not given) [Cystathionine], the LC retention time was 10.5 min.

For the molecule `CCC(=O)OC(CC(=O)[O-])C[N+](C)(C)C` (stereo not given) [Propionylcarnitine], the LC retention time was 4.5 min.

Turning to `CC(O)C(=O)C1=Nc2c(nc(N)[nH]c2=O)NC1` (stereo not given) [Sepiapterin], the LC retention time is 4.63 min.

As for `NC(CCS)C(=O)O` (stereo not given) [Homocysteine], the LC retention time is 7.41 min.

For the molecule `CC[C@H](C)[C@H](N)C(=O)O` [L-Isoleucine], the LC retention time is 6.76 min.

In the case of `O=c1cc[nH]c(=S)[nH]1` [Thiouracil], the LC retention time is 1.93 min.

`NC(=NCCCC(N)C(=O)O)NC(CC(=O)O)C(=O)O` (stereo not given) [Argininosuccinic acid]: the LC retention time is 11.3 min.

On to `C[N+](C)(C)[C@@H](Cc1ccccc1)C(=O)[O-]` [Phenylalanine betaine], for which the LC retention time is 5.5 min.

In the case of `C[N+]1(C)CCCCC1C(=O)[O-]` (stereo not given) [Homostachydrine], the LC retention time is 6.93 min.

On to `CC(=O)NCCCC[C@H]([NH3+])C(=O)[O-]` [N6-Acetyl-L-lysine], for which the LC retention time was 7.59 min.

Turning to `O=S(=O)(O)CCNC1CCCCC1` [CHES], the LC retention time was 5 min.

Regarding `CS(=O)(=O)CCC(N)C(=O)O` [L-methionine sulfone], the LC retention time was 7.89 min.

`C=C(OP(=O)(O)O)C(=O)[O-]` [Phosphoenol pyruvate]: the LC retention time is 6.22 min.

For `C1CCNC1` [Pyrrolidine], the LC retention time was 7.71 min.

`CC(=O)NC(CCCN)C(=O)O` (stereo not given) [N-Acetyl-ornithine]: the LC retention time is 8.65 min.

As to `CC(C)C(NC(=O)CN)C(=O)O` (stereo not given) [Glycyl-valine], the LC retention time is 7.08 min.

With `O=C(C=Cc1ccc(O)c(O)c1)OC1CC(O)(C(=O)O)CC(O)C1O` (stereo not given) [Chlorogenic acid], the LC retention time is 4.42 min.

As for `CN1CCC[C@H]1C(=O)O` [N-Methyl-L-proline], the LC retention time was 7.26 min.

With `CC(C(=O)[O-])[N+](C)(C)C` (stereo not given) [Alanine betaine], the LC retention time was 7.32 min.

Consider `COC(=O)c1cccnc1` [Methyl nicotinic acid], for which the LC retention time is 1.16 min.

On to `O=C(O)CNC(=O)c1ccccc1` [Hippuric acid], for which the LC retention time is 1.36 min.

For `O=C(O)c1ccc2ccccc2n1` [Quinaldic acid], the LC retention time was 1.24 min.

Turning to `O=c1ccn(C2OC(COP(=O)(O)O)C(O)C2O)c(=O)[nH]1` (stereo not given) [Uridine mono-phosphate], the LC retention time is 6.99 min.

`NC(C(=O)O)c1ccccc1` (stereo not given) [Phenylglycine]: the LC retention time was 6.41 min.

With `CC(=O)NCCc1c[nH]c2ccc(O)cc12` [N-acetyl-5-hydroxytryptamine], the LC retention time is 2.03 min.

As for `Cn1cncc1CC(N)C(=O)O` (stereo not given) [3-methylhistidine], the LC retention time is 12 min.

As to `NCCS(=O)O` [Hypotaurine], the LC retention time was 7.87 min.

Consider `CC(NC(=O)C(Cc1ccccc1)NC(=O)C(N)CC(=O)O)C(=O)O` (stereo not drawn) [Asp-Phe-Ala], for which the LC retention time is 6.71 min.

As to `CN1CCCN=C1C=Cc1cccs1` [Pyrantel], the LC retention time was 2.3 min.

Consider `Cc1cn(C2CC(O)C(CO)O2)c(=O)[nH]c1=O` (stereo not given) [Thymidine], for which the LC retention time is 2.58 min.

Take `O=c1[nH]c(=O)c2ncn(C3OC(CO)C(O)C3O)c2[nH]1` (stereo not given) [Xanthosine]: the LC retention time is 5.36 min.

Regarding `CC(O)CN` (stereo not given) [1-amino-2-propanol], the LC retention time is 8.65 min.

Take `Cn1cncc1CC(NC(=O)CCN)C(=O)O` [L-Anserine]: the LC retention time was 12.6 min.

Regarding `O=C1CCCCN1` [2-Piperidone], the LC retention time was 1.85 min.

As for `O=C(NCC(=O)N1CCCC1C(=O)O)C1CCCN1` (stereo not given) [Proline-glycine-proline], the LC retention time is 7.66 min.

As for `O=c1ccn(C2OC(CO)C(O)C2O)c(=O)[nH]1` (stereo not given) [Uridine], the LC retention time is 4.98 min.

`Nc1ncnc2c1ncn2C1OC(CSCCC([NH3+])C(=O)[O-])C(O)C1O` (stereo not given) [S-adenosylhomocysteine]: the LC retention time was 10.1 min.

With `NC(CCC(=O)O)C(=O)NC(Cc1ccc(O)cc1)C(=O)O` (stereo not given) [a-glutamyl-tyrosine], the LC retention time was 7.57 min.

Consider `NC(N)=NCC(=O)O` [Glycocyamine], for which the LC retention time is 8.52 min.

In the case of `OCC1OC(O)C(O)C1O` (stereo not given) [Ribose], the LC retention time was 5 min.

In the case of `Nc1nc2c([nH]c(=O)n2C2OC(CO)C(O)C2O)c(=O)[nH]1` (stereo not given) [8-hydroxyguanosine], the LC retention time was 6.1 min.

For `CSCCC(NC=O)C(=O)O` (stereo not given) [N-formylmethionine], the LC retention time is 1.85 min.

With `CC(=O)c1cnccn1` [2-Acetylpyrazine], the LC retention time was 0.96 min.

For the molecule `CC(=O)NC(Cc1ccccc1)C(=O)O` (stereo not given) [N-acetylphenylalanine], the LC retention time was 1.58 min.

On to `NC(=O)CCC(NC(=O)Cc1ccccc1)C(=O)O` (stereo not given) [Phenylacetylglutamine], for which the LC retention time was 2.63 min.

With `CCNC(=O)CC[C@H](N)C(=O)O` [L-Theanine], the LC retention time is 7.58 min.

Regarding `NCCCCN=C(N)N` [Agmatine], the LC retention time is 15.3 min.

As for `NCCc1c[nH]c2ccccc12` [Tryptamine], the LC retention time was 6.1 min.

Consider `O=C1CC(C(=O)O)NC(=O)N1` (stereo not given) [Dihydroorotic acid], for which the LC retention time is 4.02 min.

Consider `O=C1OC(CO)C(O)C(O)C1O` (stereo not given) [Gluconolactone], for which the LC retention time was 4.49 min.

Turning to `O=S(=O)(O)CCN1CCN(CCO)CC1` [HEPES], the LC retention time was 10.7 min.

Consider `CC(=O)N[C@@H](CC(=O)O)C(=O)O` [N-Acetyl-L-aspartic acid], for which the LC retention time is 4.31 min.

Regarding `CC(=O)N[C@H]1C(O)O[C@H](CO)[C@@H](O)[C@@H]1O` (stereo partly drawn) [N-Acetyl-D-glucosamine], the LC retention time is 6.24 min.

`NCCCCC(N)C(=O)O` (stereo not given) [Lysine]: the LC retention time is 12.5 min.

For `OC1COC(O)C(O)C1O` (stereo not given) [Xylose], the LC retention time was 6.03 min.

Consider `NCCC(=O)NC(Cc1cnc[nH]1)C(=O)O` (stereo not given) [Carnosine], for which the LC retention time is 13.1 min.

Take `Oc1cccnc1` [3-Hydroxypyridine]: the LC retention time was 6.36 min.

In the case of `CN(CC(=O)O)C(N)=NP(=O)(O)O` [Phosphocreatine], the LC retention time was 7.7 min.

As to `Cc1ncc(CO)c(CO)c1O` [Pyridoxine], the LC retention time was 7.08 min.

On to `C[N+](C)(C)C(Cc1c[nH]c2ccccc12)C(=O)[O-]` (stereo not given) [Tryptophan betaine], for which the LC retention time was 5.65 min.

Take `CC(=O)OCC[N+](C)(C)C` [Acetylcholine]: the LC retention time was 3.46 min.

Take `NCCc1cc(O)c(O)cc1O` [Hydroxydopamine]: the LC retention time was 9.19 min.

`CN(C)C(=N)N=C(N)N` [Metformin]: the LC retention time was 8.84 min.

For `CC1(C)SC2C(NC(=O)C(N)c3ccc(O)cc3)C(=O)N2C1C(=O)O` (stereo not given) [Amoxicillin], the LC retention time was 6.82 min.

Take `NC(=O)CCC(N)C(=O)O` (stereo not given) [Glutamine]: the LC retention time is 8.52 min.

On to `COC(=O)c1ccccn1` [Methylpicolinate], for which the LC retention time was 1.06 min.

On to `O=c1[nH]c2ccccc2o1` [2-Benzoxazolinone], for which the LC retention time is 1.01 min.

In the case of `O=c1[nH]c(=O)c2cn[nH]c2[nH]1` [Alloxanthine], the LC retention time is 4.27 min.

In the case of `NC(CSS(=O)(=O)O)C(=O)O` (stereo not given) [Cysteine-S-sulfate], the LC retention time is 7.64 min.

As to `NCCS(=O)(=O)O` [Taurine], the LC retention time was 7.44 min.

Take `O=C(O)Cc1cccnc1` [3-Pyridylacetic acid]: the LC retention time was 5.94 min.

Turning to `O=C(O)CNC(=O)C1CCC(=O)N1` (stereo not given) [Pyroglutamylglycine], the LC retention time was 4.32 min.

With `NC(=O)CC(N)C(=O)O` (stereo not given) [Asparagine], the LC retention time is 8.67 min.

Turning to `C[N+](C)(C)CCOP(=O)(O)OP(=O)([O-])OCC1OC(n2ccc(N)nc2=O)C(O)C1O` (stereo not given) [Citicholine], the LC retention time is 10.6 min.

As for `CCCC(C(=O)[O-])[N+](C)(C)C` (stereo not given) [Norvaline betaine], the LC retention time was 6.15 min.

With `CC(=O)NC(CCC(=O)O)C(=O)O` (stereo not given) [N-acetylglutamate], the LC retention time is 3.71 min.

As to `Cn1cnc2nc(N)[nH]c(=O)c21` [7-methylguanine], the LC retention time is 6.62 min.

As for `CC(C)(CO)C(O)C(=O)NCCC(=O)O` (stereo not given) [Pantothenic acid], the LC retention time was 2.31 min.

As to `NC(Cc1ccc(O)c([N+](=O)[O-])c1)C(=O)O` (stereo not given) [Nitrotyrosine], the LC retention time is 6.1 min.

As to `CCCCC(N)C(=O)O` (racemic) [DL-Norleucine], the LC retention time is 6.41 min.

Consider `O=C(O)CNC(=O)C=Cc1ccccc1` [N-Cinnamoylglycine], for which the LC retention time was 1.34 min.

With `Cn1cnc2[nH]c(=O)[nH]c(=O)c21` [7-methylxanthine], the LC retention time was 2.72 min.
